Patent publication US4673690A, “Acylated enamides and pharmaceutical compositions containing them” (priority 1982, dated 1987)

Columns and labels:
[1] = test system: Taper Liver Tumor cancer cells; assay: Survival of mice inoculated with Taper Liver Tumor cells (Example 2); type: in vivo; details: cyclophosphamide alone, intraperitoneal, 48 hours after cancer cells
Protocol: A pharmaceutical composition is prepared by mixing 4 g of para-(methoxyphenylacetyl)-dehydroalanine obtained according to Example 1 and 3.2 g of cyclophosphamide.
One million "Taper Liver Tumor" cancer cells are injected intraperitoneally into a group of 10 mice each weighing about 30 g. 48 hours after this injection, the pharmaceutical composition described above is administered again intraperitoneally, in an amount of 180 mg per kg of mouse.
By way of comparison, a group of 10 similar mice to which likewise one million "Taper Liver Tumor" cancer cells have been administered is subjected solely to administration of cyclophosphamide, by intraperitoneal injection, 48 hours after administration of the cancer cells, and a group of 10 other similar mice, to which, again, one million "Taper Liver Tumor" cancer cells have been administered is not subjected to any further treatment whatsoever.

[2] = test system: Taper Liver Tumor cancer cells; assay: Taper Liver Tumor in mice, variation of the amount of S 86 (Example 3); type: in vivo, NMRI strain; details: cyclophosphamide 80 mg/kg alone, i.p.
Protocol: (§1) One million "Taper Liver Tumor" cancer cells are injected intraperitoneally into groups of twelve adult male mice, NMRI strain, the mice having a body weight of about 30 grams. 48 hours after this injection various pharmaceutical compositions according to the invention are administered, again intraperitoneally, to the mice, the amount of para-(methoxyphenylacetyl)-dehydroalanine present in the composition administered being varied, and compositions only containing cyclophosphamide also beino administered.
(§2) Thereafter, three parameters are measured:
(a) the variations of the mean weight of the mice on the fifth day after inoculation of the cancer tumour (V.M.W.)
(§3) (b) the median survival of 12 mice treated with a pharmaceutical composition according to the invention or treated with cyclophosphamide alone (M.S.)
(c) the prolongation of survival of the mice treated with a composition according to the invention relative to comparison mice treated with cyclophosphamide alone (P.S.).

[3] = test system: Taper Liver Tumor cancer cells; assay: Taper Liver Tumor in mice, variation of the amount of cyclophosphamide (Example 4); type: in vivo, NMRI strain; details: i.p.
Protocol: as §1, with “cyclophosphamide” for “para-(methoxyphenylacetyl)-dehydroalanine”, “being” for “beino”
as §2
(a) the variation of the mean weight of the mice on the fifth day after inoculation of the cancer tumour (V.M.W.)
as §3
(c) the prolongation of survival of the mice treated with a composition according to the invention relative to comparison mice treated with the same dose of cyclophosphamide (P.S).

[4] = Lethal dose (LD50) in the mouse; details: in vivo
Source text: The results obtained are listed in the table below, the para-(methoxyphenylacetyl)-dehydroalanine being referred to by the code S 86.

[5] = Solubility; type: physicochemical
[6] = test system: cytochrome P450; assay: Toxicity of doxorubicin in vivo: content of cytochrome P450 in the liver; set-up: species or system rats
Protocol: (§4) On the other hand the drop in benzo(a)pyrene hydroxylase activity is no more than 20% and the decrease in aldrin mono-oxygenase activity is reduced to 40%.
(§5) A single dose (10 mg/kg) of a composition containing equal amounts by weight of doxorubicin and of para-(methoxyphenylacetyl)-dehydroalanine was injected into rats. A 60% increase in the minimum content of cytochrome P450, a 20% increase in the benzo(a)pyrene hydroxylase activity and a 5% decrease in the aldrin mono-oxygenase activity were observed.

[7] = test system: benzo(a)pyrene hydroxylase; assay: Toxicity of doxorubicin in vivo: benzo(a)pyrene hydroxylase activity in the liver; set-up: species or system rats
Protocol: as §4, §5

[8] = test system: aldrin mono-oxygenase; assay: Toxicity of doxorubicin in vivo: aldrin mono-oxygenase activity in the liver; set-up: species or system rats; details: rat
Protocol: as §4, §5

[9] = test system: L311 leukaemia cells; assay: Survival of rats inoculated with L311 leukaemia cells (Example 6); type: in vivo, LOU/2 strain; details: doxorubicin alone, intraperitoneal
Protocol: A pharmaceutical composition is prepared by mixing 4 g of para-(methoxyphenylacetyl)-dehydroalanine obtained according to Example 1 and 0.2 g of doxorubicin.
One million L311 leukaemia cells are injected intraperitoneally into a group of six rats, LOU/2 strain, the mean body weight of the rats being 160 g. L311 leukaemia is a tumour transplantable in rats of strain LOU/2, the tumour being described in the article by C. Deckers, F. Mare, L. Deckers-Passeu and A. Trouet, Adriamycin Review, Part I, 1973, pages 79 to 86.
48 hours after this injection the pharmaceutical composition described above is administered to the rats, again intraperitoneally, in an amount of 105 mg per kg of rat.
By way of comparison, a group of twelve similar rats to which one million L311 leukaemia cells have also been administered is subjected solely to intraperitoneal administration of doxorubicin 48 hours after the administration of the L311 leukaemia cells, and a group of twelve similar rats to which one million L311 leukaemia cells have also been administered is given no subsequent treatment whatsoever.

[10] = cyclophosphamide 80 mg/kg alone
[11] = cyclophosphamide 180 mg/kg alone
[12] = cyclophosphamide 360 mg/kg alone
[13] = cyclophosphamide 450 mg/kg alone
[14] = cyclophosphamide 540 mg/kg alone
[15] = single dose of doxorubicin 10 mg/kg, subcutaneous, rat liver

O=P1(N(CCCl)CCCl)NCCCO1 (stereo not shown) [Cyclophosphamide, cyclophosphamide]
all die between (day of death) [1]: twenty-second day and the twenty-fifth day
median survival (M.S.) [2]: 24 days
variation of the mean weight of the mice on the fifth day (V.M.W.) [2]: -1
median survival (M.S.) [3, 10]: 21 days
variation of the mean weight of the mice on the fifth day (V.M.W.) [3, 10]: -2.2
median survival (M.S.) [3, 11]: 23 days
variation of the mean weight of the mice on the fifth day (V.M.W.) [3, 11]: -4.4
median survival (M.S.) [3, 12]: 31 days
variation of the mean weight of the mice on the fifth day (V.M.W.) [3, 12]: -6.6
median survival (M.S.) [3, 13]: 20 days
variation of the mean weight of the mice on the fifth day (V.M.W.) [3, 13]: -14
median survival (M.S.) [3, 14]: 12 days
variation of the mean weight of the mice on the fifth day (V.M.W.) [3, 14]: -18.6

C=C(NC(=O)Cc1ccc(OC)cc1)C(=O)O [S 86, para-(methoxyphenylacetyl)-dehydroalanine]
LD50 [4]: > 400 mg/kg
solubility of the product [5]: low solubility

NCCS [cysteamine]
protection against the effect of doxorubicin on the level of cytochrome P450 ([6]; rat, in vivo): does not protect
drop in benzo(a)pyrene hydroxylase activity ([7]; rat, in vivo): no more than 20%
decrease in aldrin mono-oxygenase activity [8]: 40%

COc1cccc2c1C(=O)c1c(O)c3c(c(O)c1C2=O)C[C@@](O)(C(=O)CO)C[C@@H]3O[C@H]1C[C@H](N)[C@H](O)[C@H](C)O1 [doxorubicin]
reduction in the minimum content of cytochrome P450 [6, 15]: 20%
benzo(a)pyrene hydroxylase activity (in words) [7, 15]: a drop in benzo(a)pyrene hydroxylase activity
first death after administration of the leukaemia cells [9]: sixteen
mean length of survival after administration of the leukaemia cells ([9]; 48 hours after leukaemia cells): 27.6 days
